Measured values reported in patent publication US6251932A, “Immunophilin ligands” (ASTA Medica AG, priority 1998, dated 2001).
Where two headings read alike, the source gives them in different places.

What was measured:
[1] = system: T cells stimulated with OKT-3; experiment: IL-2 proliferation test: 3H-thymidine incorporation in T cells stimulated with OKT-3 (CD3-induced proliferation); assay type: cell-based; conditions: Compound [10 μmol], OKT-3 1 μg/ml, 45 hours; for inhibition: T-cell
Experimental: The IL-2 proliferation test is based on the incorporation of ^3 H-thymidine in T cells stimulated with OKT-3 (human anti-CD-3-antibodies) and is carried out by inoculating 100,000 T cells into microtitre plates in 150 μl of culture medium per well, stimulated by addition of OKT-3 (1 μg/ml) and incubated for 45 hours in each case with one of the compounds of Formula I. After this incubation time, 10 μl of the ^3 H-thymidine solution (0.5 μCi) are pipetted into each well. The mixture is then incubated in a 5% CO2 atmosphere at 37° C. for 6 hours. After harvesting the cells, the radioactivity is quantified in a B-counter.

human cyclophilin B = human cyclophilin B (Homo sapiens, UniProt P23284); experiment: PPIase test: inhibition of human cyclophilin B (Suc-Ala-Ala-Pro-Phe-Nan, chymotrypsin); assay type: biochemical; conditions: Compound [10 μmol]; preincubated 15 minutes at 4° C. with 10 nmol Cyp B
Experimental: The compounds of Formula I of the present invention are distinguished by immunophilin binding and inhibit isomerase activity. This prolyl isomerase activity is tested according to a conventional, well known enzyme test described in G. Fischer, H. Bang. Mech, Biomed. Biochim. Acta, 43, 1101-1111; G. Fischer, H. Bang, A Schellenberger, Biochim. Biophys. Acta, 791, 87-97, 1984; D. H. Rich et al., J. Med. Chem. 38, 4164-4170, 1995.
The compounds of Formula I of the present invention are distinguished by immunophilin binding and inhibit its peptidyl-prolyl cis-trans isomerase (PPlase) activity. […] This PPlase activity is determined by the aforementioned well known enzyme test.
The compounds of Formula I are preincubated at 4° C. for 15 minutes together with 10 nmol of Cyp B. The enzyme reaction is started using the test peptide Suc-Ala-Ala-Pro-Phe-Nan after addition of chymotrypsin and HEPES buffer. The change in extinction at 390 nm is then monitored and analyzed. The photometrically determined change in extinction results from two subreactions: a) the rapid chymotryptic cleavage of the trans peptide; b) the nonenzymatic cis-trans isomerization, which is catalysed by cyclophilins.

[2] = kidneys, neurotoxicity; cited from earlier work
IL-2 proliferation [3] = experiment: Inhibition of IL-2 proliferation (published indoline-2-carboxamide); assay type: cell-based; conditions: 10 μmol; new measurements
Description: A further compound having immunosuppressant properties was discovered during the screening of substance mixtures (G. Quinkert, H. Bang and D. Reichert, Helv. Chim. Acta 1996, 79, 1260).

IL-2 proliferation [4] = conditions: published, cited from earlier work
[5] = system: bronchial asthma and underlying inflammations; conditions: animal experiments and clinical studies; cited from earlier work
FKBP = conditions: cited from earlier work

human cyclophilin B, sequence (P23284 34-216): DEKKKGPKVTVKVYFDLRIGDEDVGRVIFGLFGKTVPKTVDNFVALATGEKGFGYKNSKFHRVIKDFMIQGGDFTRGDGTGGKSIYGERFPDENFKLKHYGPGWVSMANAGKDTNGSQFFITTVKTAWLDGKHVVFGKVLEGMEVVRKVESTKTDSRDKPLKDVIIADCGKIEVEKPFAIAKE

Compound	inhibition at 10 µM (human cyclophilin B) [%]	inhibition [1] [%]	also measured
CO[C@H]1C[C@@H]2CC[C@@H](C)[C@@](O)(O2)C(=O)C(=O)N2CCCC[C@H]2C(=O)O[C@H]([C@H](C)C[C@@H]2CC[C@@H](O)[C@H](OC)C2)CC(=O)[C@H](C)/C=C(\C)[C@@H](O)[C@@H](OC)C(=O)[C@H](C)C[C@H](C)/C=C/C=C/C=C/1C [rapamycin]	–	–	side effects [2]: manifold side effects, in particular of the kidneys, and neurotoxicity
CC(=O)Nc1ccc(S(=O)(=O)N2c3ccccc3C[C@@H]2C(=O)O)cc1 [Example 21, (2R)-[4-(acetylamino)phenylsulfonyl]indoline-2-carboxylic acid]	0 to 20	12	–
Cc1ccc(S(=O)(=O)N2c3ccccc3C[C@H]2C(=O)N2c3ccccc3C[C@H]2C(=O)NCCc2ccccn2)cc1 [Example 18, (2S)-1-[((2S)-1-(4-methylphenylsulfonyl)indolin-2-yl)carbonyl]-N^2-(ethyl-2-pyridine)indoline-2-carbamide]	40	59	–
CC(=O)Nc1ccc(S(=O)(=O)N2c3ccccc3C[C@@H]2C(=O)N2c3ccccc3C[C@@H]2C(=O)O)cc1 (racemic) [Example 23, (2RS)-1-({(2RS)-1-[4-(acetylamino)phenylsulfonyl]indolin-2-yl}-carbonyl)indoline-2-carboxylic acid]	0 to 20	46	–
COCCNC(=O)[C@@H]1Cc2ccccc2N1C(=O)C1CCN(S(=O)(=O)c2ccc(N)cc2)CC1 [Example 8, (2S)-1-[((2S)-1-(4-aminophenylsulfonyl)-4-piperidinyl)carbonyl]-N-(2-methoxyethyl)indoline-2-carbamide]	40 to 60	71	–
COCCNC(=O)[C@@H]1Cc2ccccc2N1C(=O)C1CCN(S(=O)(=O)c2ccc(NC(C)=O)cc2)CC1 [Example 9]	40 to 60	75	–
COCCNC(=O)[C@@H]1Cc2ccccc2N1C(=O)[C@@H]1Cc2ccccc2N1S(=O)(=O)c1ccc(N)cc1 [Example 6, (2S)-1-[((2S)-1-(4-aminophenylsulfonyl)indolin-2-yl)carbonyl]-N-(2-methoxyethyl)indoline-2-carbamide]	40	84	–
COC(=O)/C=C/c1ccc(NC(=O)[C@@H]2Cc3ccccc3N2S(=O)(=O)c2ccc(NC(C)=O)cc2)cc1 [Example 13, Methyl (E)-({(2S)-1-[4(acetylamino)phenylsulfonyl]indoln-2-yl}-carbonyl)-4-(aminophenyl)acrylate]	0 to 20	46	–
Cc1ccc(S(=O)(=O)N2c3ccccc3C[C@H]2C(=O)N2c3ccccc3C[C@H]2C(=O)Nc2ccncc2)cc1 [Example 19, (2S)-1-[((2S)-1-(4-methylphenylsulfonyl)indolin-2-yl)carbonyl]-(4-pyridine)indoline-2-carbamide]	40	64	–
indoline-2-carboxamide	–	–	IL-2-dependent inhibition of proliferation (IL-2 proliferation [3]): 29%; inhibition of IL-2 proliferation (IL-2 proliferation [4]; 1 μmol): 12%; inhibition of IL-2 proliferation (IL-2 proliferation [4]; 10 μmol): 77%
CC(=O)Nc1ccc(S(=O)(=O)N2c3ccccc3C[C@H]2C(=O)N[C@@H](CC(C)C)C(=O)O)cc1 [Example 11]	–	–	CD3-induced inhibition of proliferation in [%] [1]: 61%; Inhibition [%] of PPIase activity (human cyclophilin B): 40%
COCCNC(=O)[C@H]1Cc2ccccc2N1C(=O)[C@H]1Cc2ccccc2N1S(=O)(=O)c1ccc(NC(C)=O)cc1 [Example 4]	60	85	–
Cc1ccc(S(=O)(=O)N2c3ccccc3C[C@H]2C(=O)N2c3ccccc3C[C@H]2C(=O)NCCN2CCOCC2)cc1 [Example 17, (2S)-1-[((2S)-1-(4-methylphenylsulfonyl)indolin-2-yl)carbonyl]-N^2-(N-ethylmorpholine)indoline-2-carbamide]	40	57	–
C=CC[C@@H]1/C=C(\C)C[C@H](C)C[C@H](OC)[C@H]2O[C@@](O)(C(=O)C(=O)N3CCCC[C@H]3C(=O)O[C@H](/C(C)=C/[C@@H]3CC[C@@H](O)[C@H](OC)C3)[C@H](C)[C@@H](O)CC1=O)[C@H](C)C[C@@H]2OC [FK 506]	–	–	side effects [2]: manifold side effects, in particular of the kidneys, and neurotoxicity; therapeutic effect in bronchial asthma [5]: favorable therapeutic in bronchial asthma and underlying inflammations; binding to FKBP (FKBP): bind with high affinity
COCCNC(=O)[C@@H]1Cc2ccccc2N1S(=O)(=O)c1cccc2cccnc12 [Example 10, (2S)-1-[(8-quinolinylsulfonyl)]-N-(2-methoxyethyl)indolinecarbamide]	20 to 40	59	–
COC(=O)[C@H](CCCCNC(=O)OCc1ccccc1)NC(=O)[C@@H]1Cc2ccccc2N1S(=O)(=O)c1ccc(NC(C)=O)cc1 [Example 12, (S)-N-{(2S)-1-[4-(acetylamino)phenylsulfonyl]indolin-2-yl}carbonyl-N-(benzyloxycarbonyl)lysine methyl ester]	60	79	–
COCCNC(=O)[C@@H]1Cc2ccccc2N1C(=O)[C@@H]1Cc2ccccc2N1S(=O)(=O)c1ccc2ccccc2c1 [Example 15, (2S)-1-[((2S)-1-(2-Naphthalenylsulfonyl)indolin-2-yl)carbonyl]-N-(2-methoxyethyl)indoline-2-carbamide]	20	56	–

Second part, led by results:

inhibition at 10 µM (human cyclophilin B) [%]	Compound	inhibition [1] [%]	also measured
40	COCCNC(=O)[C@H]1Cc2ccccc2N1C(=O)[C@@H]1Cc2ccccc2N1S(=O)(=O)c1ccc(NC(C)=O)cc1 [Example 2]	85	–
30	COC(=O)[C@H]1Cc2ccccc2N1C(=O)[C@H]1Cc2ccccc2N1S(=O)(=O)c1ccc(NC(C)=O)cc1 (racemic) [Example 22, Methyl (2RS)-1-({(2RS)-1-[4-(acetylamino)phenylsulfonyl]indolin-2-yl}carbonyl)indoline-2-carboxylate]	43	–
40	COCCNC(=O)[C@@H]1Cc2ccccc2N1C(=O)[C@H]1Cc2ccccc2N1S(=O)(=O)c1ccc(NC(C)=O)cc1 [Example 3]	84	–
20 to 40	COCCNC(=O)C1Cc2ccccc2N1C(=O)C1Cc2ccccc2N1S(=O)(=O)c1ccc(NC(C)=O)cc1 (racemic) [Example 5, (2R,S)-1-[((2R,S)-1-(4-acetylaminophenylsulfonyl)indolin-2-yl)-carbonyl]-N-(2-methoxyethyl)indoline-2-carbamide]	85	–
0 to 20	COC(=O)[C@H]1Cc2ccccc2N1S(=O)(=O)c1ccc(NC(C)=O)cc1 [Example 20, Methyl (2R)-[4-(acetylamino)phenylsulfonyl]indoline-2-carboxylate]	15	–
20	COCCNC(=O)[C@@H]1Cc2ccccc2N1C(=O)[C@@H]1Cc2ccccc2N1S(=O)(=O)c1cccc2ccccc12 [Example 14, (2S)-1-[((2S)-1-(1-naphthalenylsulfonyl)indolin-2-yl)carbonyl]-N-(2-methoxyethyl)indoline-2-carbamide]	48	–
40	COCCNC(=O)[C@@H]1Cc2ccccc2N1C(=O)[C@@H]1Cc2ccccc2N1S(=O)(=O)c1ccc(NC(C)=O)cc1 [Example 1]	83	–
40	COCCNC(=O)[C@@H]1Cc2ccccc2N1C(=O)[C@@H]1CCCN1S(=O)(=O)c1ccc(N)cc1 [Example 7, (^2 S)-1-[((2S)-1-(4-aminophenylsulfonyl)prolyl)carbonyl]-N-(2-methoxyethyl)indoline-2-carbamide]	79	–
20 to 40	Cc1ccc(S(=O)(=O)N2c3ccccc3C[C@H]2C(=O)N2c3ccccc3C[C@H]2C(=O)NCCCn2ccnc2)cc1 [Example 16, (2S)-1-[((2S)-1-(4-methylphenylsulfonyl)indolin-2-yl)carbonyl]-N^3-(N-propylimidazole)indoline-2-carbamide]	54	–
